From patent US6528464B1, “Composition and method for inhibiting uptake of biguanide antimicrobials by hydrogels” (Bausch & Lomb Incorporated, priority 2001, dated 2003)

Test: Uptake (sorption) of Alexidine by SureVue hydrogel contact lenses after overnight soak
Assay type: physicochemical
Source text: The following examples evaluate whether the addition of cyclodextrin reduced the sorption of the biguanide Alexidine on SureVue® brand hydrogel contact lenses (commercially available from Johnson & Johnson Vision Care Incorporated of Jacksonville, Fla.).
5. 3-mL of each test solution, as well as the control solution, were placed into the lens cases for a total of 5 samples per solution.
6. SureVue® lenses were placed into each lens well aseptically.
7. Each lens was “dipped” into double-distilled water for approximately 2 seconds prior to installation into the lens cases.
8. Lenses were allowed to soak for approximately 18 hours (overnight).
9. 1-mL of solution from each of the lens wells was removed, analyzed and returned to the lens cases.

| Compound | Uptake of Alexidine by SureVue ® Lenses (0.1% Beta-Cyclodextrin) (0.1% Beta-Cyclodextrin, soak approximately 18 hours) [ppm] | Uptake of Alexidine by SureVue ® Lenses (0.3% Beta-Cyclodextrin) (0.3% Beta-Cyclodextrin, soak approximately 18 hours) [ppm] | Uptake of Alexidine By SureVue ® Lenses (no Beta-Cyclodextrin (control solution), soak approximately 18 hours) [ppm] | Inhibition of uptake of Alexidine by SureVue ® Lenses (0.1% Beta-Cyclodextrin) [% Inhibition] | Inhibition of uptake of Alexidine by SureVue ® Lenses (0.3% Beta-Cyclodextrin) [% Inbibition] |
| --- | --- | --- | --- | --- | --- |
| CCCCC(CC)CNC(=N)NC(=N)NCCCCCCNC(=N)NC(=N)NCC(CC)CCCC (centres unmarked) [Alexidine] | 62.10 | 31.04 | 75.26 |  |  |
| OC[C@H]1O[C@@H]2O[C@H]3[C@H](O)[C@@H](O)[C@@H](O[C@H]4[C@H](O)[C@@H](O)[C@@H](O[C@H]5[C@H](O)[C@@H](O)[C@@H](O[C@H]6[C@H](O)[C@@H](O)[C@@H](O[C@H]7[C@H](O)[C@@H](O)[C@@H](O[C@H]8[C@H](O)[C@@H](O)[C@@H](O[C@H]1[C@H](O)[C@H]2O)O[C@@H]8CO)O[C@@H]7CO)O[C@@H]6CO)O[C@@H]5CO)O[C@@H]4CO)O[C@@H]3CO [Beta-Cyclodextrin] |  |  |  | 17.50 | 58.75 |
